Experimental data from patent US7560468B2, “Substituted 1,4,8-triazaspiro[4,5]decan-2-one compounds” (Gruenenthal GmbH, priority 2004, dated 2009).

Tests used:
5-HT transporter = molecular target: T1, 5-HT transporter (Rattus norvegicus, UniProt P31652); assay: Inhibition of 5-HT uptake in synaptosomes; assay type: biochemical; settings: for inhibition at 1 µM: read-out: Uptake_5-HT, rat, 1 μM, % inhibition
T1 construct: from tissue; host or cells: rat brain synaptosomes (marrow/medulla and pons), P2 fraction
T1 sequence (P31652 whole entry): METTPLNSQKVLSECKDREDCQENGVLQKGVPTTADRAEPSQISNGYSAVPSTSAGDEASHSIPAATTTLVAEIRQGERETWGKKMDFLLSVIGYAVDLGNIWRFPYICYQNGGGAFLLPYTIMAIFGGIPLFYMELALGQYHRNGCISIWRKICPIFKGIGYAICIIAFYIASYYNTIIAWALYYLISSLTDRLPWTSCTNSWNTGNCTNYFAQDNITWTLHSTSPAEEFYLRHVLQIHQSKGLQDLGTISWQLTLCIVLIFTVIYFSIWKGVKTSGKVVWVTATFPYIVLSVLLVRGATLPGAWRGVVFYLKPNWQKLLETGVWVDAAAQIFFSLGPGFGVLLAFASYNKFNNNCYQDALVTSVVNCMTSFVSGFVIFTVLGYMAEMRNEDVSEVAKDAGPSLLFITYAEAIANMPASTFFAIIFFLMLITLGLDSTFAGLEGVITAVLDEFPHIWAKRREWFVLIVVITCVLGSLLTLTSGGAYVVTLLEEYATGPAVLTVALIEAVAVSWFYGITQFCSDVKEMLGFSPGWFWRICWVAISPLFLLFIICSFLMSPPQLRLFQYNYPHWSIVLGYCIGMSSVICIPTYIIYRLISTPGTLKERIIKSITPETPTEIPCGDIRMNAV

NA transporter = assay: Inhibition of noradrenalin uptake in synaptosomes; assay type: biochemical
[1] = tested on: batrachotoxin (BTX) binding site of the sodium channel; assay: Affinity to the batrachotoxin (BTX) binding site of the sodium channel; settings: rat cerebrocortex synaptosomes, [3H]-batrachotoxinin A20 α-benzoate 10 nM; test concentration not given

SMILES	Uptake_5-HT, rat, 1 μM, % inhibition (5-HT transporter)	Uptake (NA), rat, 10 μM, % inhibition (NA transporter)	BTX Inhibition [1]	inhibition at 1 µM (5-HT transporter)
O=C1NC2(CCN(S(=O)(=O)c3ccccc3F)CC2)NC1Cc1ccccc1 (stereo not drawn) [Example 7, 3-Benzyl-8-(2-fluorobenzolsulfonyl)-1,4,8-triazaspiro[4,5]decan-2-one]	54%	32%		
CSCCC1NC2(CCN(S(=O)(=O)c3ccc(C(C)=O)cc3)CC2)N(Cc2cccc(C#N)c2)C1=O (stereo not drawn) [Example 10, 3-[8-(4-Acetylbenzolsulfonyl)-3-(2-methylsulfanylethyl)-2-oxo-1,4,8-triazaspiro[4,5]dec-1-ylmethyl]-benzonitrile]	35%	39%		
COc1cc(C)c(S(=O)(=O)N2CCC3(CC2)NC(C(C)C)C(=O)N3Cc2ccccc2F)c(C)c1C (stereo not drawn) [Example 11, 1-(2-Fluorobenzyl)-3-isopropyl-8-(4-methoxy-2,3,6-trimethylbenzolsulfonyl)-1,4,8-triazaspiro[4,5]decan-2-one]	52%	37%		
C#CCN1C(=O)C(Cc2ccccc2)NC12CCN(S(=O)(=O)c1ccccc1C(F)(F)F)CC2 (stereo not drawn) [Example 39, 3-Benzyl-1-prop-2-ynyl-8-(2-trifluoromethylbenzolsulfonyl)-1,4,8-triazaspiro[4,5]decan-2-one]	38%	41%	39	
CCOC(=O)CN1C(=O)C(Cc2ccccc2)NC12CCN(S(=O)(=O)c1cc([N+](=O)[O-])ccc1C)CC2 (stereo not drawn) [Example 46, Ethyl[3-benzyl-8-(2-methyl-5-nitrobenzolsulfonyl)-2-oxo-1,4,8-triazaspiro[4,5]dec-1-yl]-acetate]	90%	33%	30	
CCOC(=O)CN1C(=O)C(Cc2ccccc2)NC12CCN(S(=O)(=O)c1ccccc1S(C)(=O)=O)CC2 (stereo not drawn) [Example 47, Ethyl[3-benzyl-8-(2-methansulfonylbenzolsulfonyl)-2-oxo-1,4,8-triazaspiro[4,5]dec-1-yl]-acetate]	71%	47%	31	
CCCCS(=O)(=O)N1CCC2(CC1)NCC(=O)N2Cc1ccc(C(=O)OC)cc1 [Example 53, Methyl 4-[8-(butan-1-sulfonyl)-2-oxo-1,4,8-triazaspiro[4,5]dec-1-ylmethyl]-benzoate]		30%	31	45%
CCOC(=O)CN1C(=O)C(Cc2ccccc2)NC12CCN(S(=O)(=O)c1ccccc1C(F)(F)F)CC2 (stereo not drawn) [Example 65, Ethyl[3-benzyl-2-oxo-8-(2-trifluoromethylbenzolsulfonyl)-1,4,8-triazaspiro[4,5]dec-1-yl]-acetate]	71%	33%	51	
CCOC(=O)CN1C(=O)C(Cc2ccccc2)NC12CCN(S(=O)(=O)Cc1ccccc1)CC2 (stereo not drawn) [Example 68, Ethyl(3-benzyl-2-oxo-8-benzolmethansulfonyl-1,4,8-triazaspiro[4,5]dec-1-yl)acetate]	69%	31%	47	
COc1ccccc1NC(=S)N1CCC2(CC1)NC(Cc1ccccc1)C(=O)N2Cc1ccccc1F (stereo not drawn) [Example 108, 3-Benzyl-1-(2-fluorobenzyl)-2-oxo-1,4,8-triazaspiro[4,5]decan-8-thiocarboxylic acid (2-methoxy-benzol)amide]	86%	31%	86	
CCCCN1C(=O)C(C(C)C)NC12CCN(C(=S)NCc1ccc(Cl)cc1)CC2 (stereo not drawn) [Example 150, 1-Butyl-3-isopropyl-2-oxo-1,4,8-triazaspiro[4,5]decan-8-thiocarboxylic acid 4-chlorobenzylamide]		30%	73	51%
CSCCC1NC2(CCN(C(=S)Nc3ccccc3C)CC2)N(Cc2ccc3ccccc3c2)C1=O (stereo not drawn) [Example 151, 3-(2-Methylsulfanylethyl)-1-naphthalin-2-ylmethyl-2-oxo-1,4,8-triazaspiro[4,5]decan-8-thiocarboxylic acid o-tolylamide]		42%	84	64%
CC(C)C1NC2(CCN(C(=S)Nc3c(F)c(F)c(F)c(F)c3F)CC2)N(Cc2ccccc2)C1=O (stereo not drawn) [Example 154, 1-Benzyl-3-isopropyl-2-oxo-1,4,8-triazaspiro[4,5]decan-8-thiocarboxylic acid pentafluorobenzolamide-amide]	34%	43%	61	
CCCCN1C(=O)C(CCSC)NC12CCN(C(=S)Nc1ccc(OCC)cc1)CC2 (stereo not drawn) [Example 158, 1-Butyl-3-(2-methylsulfanylethyl)-2-oxo-1,4,8-triazaspiro[4,5]decan-8-thiocarboxylic acid (4-ethoxy-benzol)amide]	33%	41%	35	
CCOC(=O)CN1C(=O)C(Cc2ccccc2)NC12CCN(C(=S)NCC1CCCCC1)CC2 (stereo not drawn) [Example 159, Ethyl[3-benzyl-8-(cyclohexylmethylthiocarbamoyl)-2-oxo-1,4,8-triazaspiro[4,5]dec-1-yl]-acetate]		36%	84	33%
C#CCN1C(=O)C(CC(C)C)NC12CCN(C(=S)Nc1cccc(C(C)=O)c1)CC2 (stereo not drawn) [Example 163, 3-Isobutyl-2-oxo-1-prop-2-ynyl-1,4,8-triazaspiro[4,5]decan-8-thiocarboxylic acid (3-acetylbenzol)amide]	38%	34%		
CSCCC1NC2(CCN(C(=S)Nc3cccc(C(C)=O)c3)CC2)N(Cc2ccc3ccccc3c2)C1=O (stereo not drawn) [Example 165, 3-(2-Methylsulfanylethyl)-1-naphthalin-2-ylmethyl-2-oxo-1,4,8-triazaspiro[4,5]decan-8-thiocarboxylic acid (3-acetylbenzol)amide]	42%	48%	64	
Cc1cccc(NC(=S)N2CCC3(CC2)NC(Cc2ccccc2)C(=O)N3Cc2ccccc2F)c1 (stereo not drawn) [Example 166, 3-Benzyl-1-(2-fluorobenzyl)-2-oxo-1,4,8-triazaspiro[4,5]decan-8-thiocarboxylic acid m-tolylamide]		39%	85	64%
CCOC(=O)NC(=S)N1CCC2(CC1)NC(Cc1ccccc1)C(=O)N2Cc1ccccc1F (stereo not drawn) [Example 174, Ethyl[3-benzyl-1-(2-fluorobenzyl)-2-oxo-1,4,8-triazaspiro[4,5]decan-8-carbothioyl]-carbamate]		39%	38	31%
COc1ccccc1NC(=S)N1CCC2(CC1)NC(CCSC)C(=O)N2Cc1cccc(C#N)c1 (stereo not drawn) [Example 184, 1-(3-Cyanobenzyl)-3-(2-methylsulfanylethyl)-2-oxo-1,4,8-triazaspiro[4,5]decan-8-thiocarboxylic acid (2-methoxy-benzol)amide]		32%	36	
CCCCN1C(=O)C(CCSC)NC12CCN(C(=S)Nc1ccc(F)cc1)CC2 (stereo not drawn) [Example 189, 1-Butyl-3-(2-methylsulfanylethyl)-2-oxo-1,4,8-triazaspiro[4,5]decan-8-thiocarboxylic acid (4-fluorobenzol)amide]	66%	30%	41	
CSCCC1NC2(CCN(C(=S)NCc3ccc(Cl)cc3)CC2)N(Cc2ccccc2C#N)C1=O (stereo not drawn) [Example 193, 1-(2-Cyanobenzyl)-3-(2-methylsulfanylethyl)-2-oxo-1,4,8-triazaspiro[4,5]decan-8-thiocarboxylic acid 4-chlorobenzylamide]		32%	72	
C#CCN1C(=O)C(CC(C)C)NC12CCN(C(=S)Nc1cc(Cl)cc(Cl)c1)CC2 (stereo not drawn) [Example 195, 3-Isobutyl-2-oxo-1-prop-2-ynyl-1,4,8-triazaspiro[4,5]decan-8-thiocarboxylic acid (3,5-dichlorobenzol)amide]		30%	77	
CCOC(=O)CN1C(=O)C(CCSC)NC12CCN(C(=O)Nc1ccccc1)CC2 (stereo not drawn) [Example 203, Ethyl[3-(2-methylsulfanylethyl)-2-oxo-8-benzolcarbamoyl-1,4,8-triazaspiro[4,5]dec-1-yl]-acetate]		40%	32	
CCCCN1C(=O)C(C(C)C)NC12CCN(C(=O)Nc1cc(OC)ccc1OC)CC2 (stereo not drawn) [Example 216, 1-Butyl-3-isopropyl-2-oxo-1,4,8-triazaspiro[4,5]decan-8-carboxylic acid (2,5-dimethoxy-benzol)amide]	46%	30%		
CC(C)CC1NC2(CCN(C(=O)NCc3ccc(Cl)c(Cl)c3)CC2)N(Cc2ccccc2C#N)C1=O (stereo not drawn) [Example 217, 1-(2-Cyanobenzyl)-3-isobutyl-2-oxo-1,4,8-triazaspiro[4,5]decan-8-carboxylic acid 3,4-dichlorobenzylamide]		39%	78	
CSCCC1NC2(CCN(C(=O)Nc3ccc(OC(F)(F)F)cc3)CC2)N(C)C1=O (stereo not drawn) [Example 222, 1-Methyl-3-(2-methylsulfanylethyl)-2-oxo-1,4,8-triazaspiro[4,5]decan-8-carboxylic acid (4-trifluoromethoxy-benzol)amide]		30%	48	
CSCCC1NC2(CCN(C(=O)NCc3ccc(Cl)c(Cl)c3)CC2)N(Cc2ccccc2C#N)C1=O (stereo not drawn) [Example 229, 1-(2-Cyanobenzyl)-3-(2-methylsulfanylethyl)-2-oxo-1,4,8-triazaspiro[4,5]decan-8-carboxylic acid 3,4-dichlorobenzylamide]		40%	69	
